According to patent US11236087B2, “Highly active pyrazolo-piperidine substituted indole-2-carboxamides active against the hepatitis B virus (HBV)” (AiCuris GmbH & Co. KG, priority 2017, dated 2022):

Legend:
[1] = test system: HBV; experiment: Determination of HBV DNA from the supernatants of HepAD38 cells (anti-HBV activity); format: cell-based, hepatitis B virus; conditions: Hepatitis B virus, 144 h; HBV DNA in HepAD38 supernatant, day 6, qPCR; read-out: Cell Activity (EC50)
Method in brief: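 HepAD38 cells, tetracycline withdrawn to induce HBV, treated with serial half-log compound dilutions; on day 6 HBV DNA purified from filtered supernatant and quantified by real-time PCR against HBV plasmid standards; EC50 from relative copy numbers by non-linear regression, three experiments in triplicate.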

[2] = molecular target: T1, HBV core protein (UniProt P03146); experiment: Biochemical capsid assembly assay (fluorescence quenching); design: species or system hepatitis B virus; conditions: read-out: Assembly Activity (IC50); BODIPY-FL labelled core protein, 300 μM NaCl, read 6 min after start
T1 construct: fused on or other part: BODIPY-FL maleimide label on the C-terminal Cys150
Method in brief: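 Purified E. coli-expressed HBV core protein (aa 1-149 plus Cys150), BODIPY-FL maleimide-labelled, at 1.0-2.0 μM in 50 mM HEPES pH 7.5 with 0.5% DMSO was used. Compounds were tested at 8 concentrations (0.5-log dilutions from 100, 31.6 or 10 μM). Assembly was started with NaCl ([…]), and fluorescence quenching was read after 6 min (ex 477/em 525 nm). EC50 was determined by non-linear regression.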

[3] = Cell viability assay (AlamarBlue) in HepAD38 cells; conditions: human

T1 sequence (P03146 whole entry, looked up, the tested form may be a part): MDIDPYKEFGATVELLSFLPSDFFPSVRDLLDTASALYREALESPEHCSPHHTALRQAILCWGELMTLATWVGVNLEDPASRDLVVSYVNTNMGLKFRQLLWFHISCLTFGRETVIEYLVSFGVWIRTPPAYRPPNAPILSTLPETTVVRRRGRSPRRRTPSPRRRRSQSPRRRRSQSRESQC

Row | SMILES | EC50 [1] | IC50 [2] | CC50 at 6 days [3]
1 | CCN(C(=O)c1n[nH]c2c1CN(C(=O)c1cc3ccccc3[nH]1)CC2)C1(COC)CC1 [Example 296, N-ethyl-5-(1H-indole-2-carbonyl)-N-[1-(methoxymethyl)cyclopropyl]-1H,4H,5H,6H,7H-pyrazolo[4,3-c]pyridine-3-carboxamide] | < 1000 nM | < 5 µM | > 10 µM
2 | COCC1(N(C)C(=O)c2n[nH]c3c2CN(C(=O)c2cc4c(F)ccc(F)c4[nH]2)CC3)CC1 [Example 297, 5-(4,7-difluoro-1H-indole-2-carbonyl)-N-[1-(methoxymethyl)cyclopropyl]-N-methyl-1H,4H,5H,6H,7H-pyrazolo[4,3-c]pyridine-3-carboxamide] | < 1000 nM | < 5 µM | > 10 µM
3 | COCC1(N(C)C(=O)c2n[nH]c3c2CN(C(=O)c2cc4c(C(F)F)cc(F)cc4[nH]2)CC3)CC1 [Example 298, 5-[4-(difluoromethyl)-6-fluoro-1H-indole-2-carbonyl]-N-[1-(methoxymethyl)cyclopropyl]-N-methyl-1H,4H,5H,6H,7H-pyrazolo[4,3-c]pyridine-3-carboxamide] | < 1000 nM | < 5 µM | > 10 µM
4 | COCC1(N(C)C(=O)c2n[nH]c3c2CN(C(=O)c2cc4c(C(F)F)cccc4[nH]2)CC3)CC1 [Example 299, 5-[4-(difluoromethyl)-1H-indole-2-carbonyl]-N-[1-(methoxymethyl)cyclopropyl]-N-methyl-1H,4H,5H,6H,7H-pyrazolo[4,3-c]pyridine-3-carboxamide] | < 1000 nM | < 5 µM | > 10 µM
5 | COCC1(N(C)C(=O)c2n[nH]c3c2CN(C(=O)c2cc4cc(F)c(F)cc4[nH]2)CC3)CC1 [Example 300, 5-(5,6-difluoro-1H-indole-2-carbonyl)-N-[1-(methoxymethyl)cyclopropyl]-N-methyl-1H,4H,5H,6H,7H-pyrazolo[4,3-c]pyridine-3-carboxamide] | < 1000 nM | < 5 µM | > 10 µM
6 | COCC1(N(C)C(=O)c2n[nH]c3c2CN(C(=O)c2cc4c(C(F)(F)F)cccc4[nH]2)CC3)CC1 [Example 302, N-[1-(methoxymethyl)cyclopropyl]-N-methyl-5-[4-(trifluoromethyl)-1H-indole-2-carbonyl]-1H,4H,5H,6H,7H-pyrazolo[4,3-c]pyridine-3-carboxamide] | < 1000 nM | < 5 µM | > 10 µM
7 | COCC1(N(CC(F)F)C(=O)c2n[nH]c3c2CN(C(=O)c2cc4ccccc4[nH]2)CC3)CC1 [Example 303, N-(2,2-difluoroethyl)-5-(1H-indole-2-carbonyl)-N-[1-(methoxymethyl)cyclopropyl]-1H,4H,5H,6H,7H-pyrazolo[4,3-c]pyridine-3-carboxamide] | < 1000 nM | < 5 µM | > 10 µM
8 | COCC1(N(C(=O)c2n[nH]c3c2CN(C(=O)c2cc4ccccc4[nH]2)CC3)C(C)C)CC1 [Example 304, 5-(1H-indole-2-carbonyl)-N-[1-(methoxymethyl)cyclopropyl]-N-(propan-2-yl)-1H,4H,5H,6H,7H-pyrazolo[4,3-c]pyridine-3-carboxamide] | < 1000 nM | < 5 µM | > 10 µM
9 | COCC1(N(C)C(=O)c2n[nH]c3c2CN(C(=O)c2cc4c(F)cc(Cl)cc4[nH]2)CC3)CC1 [Example 305, 5-(6-chloro-4-fluoro-1H-indole-2-carbonyl)-N-[1-(methoxymethyl)cyclopropyl]-N-methyl-1H,4H,5H,6H,7H-pyrazolo[4,3-c]pyridine-3-carboxamide] | < 1000 nM | < 5 µM | > 10 µM
10 | COCC1(N(C)C(=O)c2n[nH]c3c2CN(C(=O)c2cc4c(Cl)ccc(F)c4[nH]2)CC3)CC1 [Example 306, 5-(4-chloro-7-fluoro-1H-indole-2-carbonyl)-N-[1-(methoxymethyl)cyclopropyl]-N-methyl-1H,4H,5H,6H,7H-pyrazolo[4,3-c]pyridine-3-carboxamide] | < 1000 nM | < 5 µM | > 10 µM
11 | COCC1(N(C)C(=O)c2n[nH]c3c2CN(C(=O)c2cc4c(F)c(F)cc(F)c4[nH]2)CC3)CC1 [Example 307, N-[1-(methoxymethyl)cyclopropyl]-N-methyl-5-(4,5,7-trifluoro-1H-indole-2-carbonyl)-1H,4H,5H,6H,7H-pyrazolo[4,3-c]pyridine-3-carboxamide] | < 1000 nM | < 5 µM | > 10 µM
12 | COCC1(N(C)C(=O)c2n[nH]c3c2CN(C(=O)c2cc4cccc(F)c4[nH]2)CC3)CC1 [Example 308, 5-(7-fluoro-1H-indole-2-carbonyl)-N-[1-(methoxymethyl)cyclopropyl]-N-methyl-1H,4H,5H,6H,7H-pyrazolo[4,3-c]pyridine-3-carboxamide] | < 1000 nM | < 5 µM | > 10 µM
13 | COCC1(N(C)C(=O)c2n[nH]c3c2CN(C(=O)c2cc4cc(F)cc(F)c4[nH]2)CC3)CC1 [Example 309, 5-(5,7-difluoro-1H-indole-2-carbonyl)-N-[1-(methoxymethyl)cyclopropyl]-N-methyl-1H,4H,5H,6H,7H-pyrazolo[4,3-c]pyridine-3-carboxamide] | < 1000 nM | < 5 µM | > 10 µM
14 | CN(C(=O)c1n[nH]c2c1CN(C(=O)c1cc3ccccc3[nH]1)CC2)C1(C(F)(F)F)CC1 [Example 310, 5-(1H-indole-2-carbonyl)-N-methyl-N-[1-(trifluoromethyl)cyclopropyl]-1H,4H,5H,6H,7H-pyrazolo[4,3-c]pyridine-3-carboxamide] | 1000 to 25000 nM | < 100 µM | > 10 µM
15 | CN(C(=O)c1n[nH]c2c1CN(C(=O)c1cc3ccccc3[nH]1)CC2)C1(c2ccccn2)CC1 [Example 311, 5-(1H-indole-2-carbonyl)-N-methyl-N-[1-(pyridin-2-yl)cyclopropyl]-1H,4H,5H,6H,7H-pyrazolo[4,3-c]pyridine-3-carboxamide] | < 1000 nM | < 5 µM | > 10 µM
16 | C#CCN(C)C(=O)c1n[nH]c2c1CN(C(=O)c1cc3ccccc3[nH]1)CC2 [Example 312, 5-(1H-indole-2-carbonyl)-N-methyl-N-(prop-2-yn-1-yl)-1H,4H,5H,6H,7H-pyrazolo[4,3-c]pyridine-3-carboxamide] | < 1000 nM | < 5 µM | > 10 µM
17 | COCC1(N(CC(F)(F)F)C(=O)c2n[nH]c3c2CN(C(=O)c2cc4ccccc4[nH]2)CC3)CC1 [Example 313, 5-(1H-indole-2-carbonyl)-N-[1-(methoxymethyl)cyclopropyl]-N-(2,2,2-trifluoroethyl)-1H,4H,5H,6H,7H-pyrazolo[4,3-c]pyridine-3-carboxamide] | < 1000 nM | < 5 µM | > 10 µM
18 | C#CCOCC1(N(C)C(=O)c2n[nH]c3c2CN(C(=O)c2cc4ccccc4[nH]2)CC3)CC1 [Example 315, 5-(1H-indole-2-carbonyl)-N-methyl-N-{1-[(prop-2-yn-1-yloxy)methyl]cyclopropyl}-1H,4H,5H,6H,7H-pyrazolo[4,3-c]pyridine-3-carboxamide] | < 1000 nM | < 5 µM | > 10 µM
19 | CN(Cc1cn(C)nn1)C(=O)c1n[nH]c2c1CN(C(=O)c1cc3ccccc3[nH]1)CC2 [Example 316, 5-(1H-indole-2-carbonyl)-N-methyl-N-[(1-methyl-1H-1,2,3-triazol-4-yl)methyl]-1H,4H,5H,6H,7H-pyrazolo[4,3-c]pyridine-3-carboxamide] | 1000 to 25000 nM | < 5 µM | > 10 µM
20 | C=Cc1scnc1-c1n[nH]c2c1CN(C(=O)c1cc3ccccc3[nH]1)CC2 [Example 317, 2-[3-(5-ethenyl-1,3-thiazol-4-yl)-1H,4H,5H,6H,7H-pyrazolo[4,3-c]pyridine-5-carbonyl]-1H-indole] | < 1000 nM | < 5 µM | > 10 µM
21 | CN(C(=O)c1n[nH]c2c1CN(C(=O)c1cc3ccccc3[nH]1)CC2)C1(COC(F)F)CC1 [Example 318, N-{1-[(difluoromethoxy)methyl]cyclopropyl}-5-(1H-indole-2-carbonyl)-N-methyl-1H,4H,5H,6H,7H-pyrazolo[4,3-c]pyridine-3-carboxamide] | < 1000 nM | < 5 µM | > 10 µM
22 | CN(C(=O)c1[nH]nc2c1CN(C(=O)c1cc3c(F)cccc3[nH]1)CC2)C1CC1 [Example 322, N-cyclopropyl-5-(4-fluoro-1H-indole-2-carbonyl)-N-methyl-2H,4H,5H,6H,7H-pyrazolo[4,3-c]pyridine-3-carboxamide] | < 1000 nM | < 5 µM | > 10 µM
23 | CN(C(=O)c1[nH]nc2c1CN(C(=O)c1cc3c(F)cc(F)cc3[nH]1)CC2)C1CC1 [Example 323, N-cyclopropyl-5-(4,6-difluoro-1H-indole-2-carbonyl)-N-methyl-2H,4H,5H,6H,7H-pyrazolo[4,3-c]pyridine-3-carboxamide] | < 1000 nM | < 5 µM | > 10 µM
24 | CN(C(=O)c1[nH]nc2c1CN(C(=O)c1cc3c(Cl)c(F)ccc3[nH]1)CC2)C1CC1 [Example 324, 5-(4-chloro-5-fluoro-1H-indole-2-carbonyl)-N-cyclopropyl-N-methyl-2H,4H,5H,6H,7H-pyrazolo[4,3-c]pyridine-3-carboxamide] | < 1000 nM | < 5 µM | > 10 µM
